EC50 data for three molecules are collected here from BindingDB's records for doi:10.1016/j.ejmech.2023.115292 (National Research Centre, 2023).

Assay [1] can be described thus: Inhibition of SARS-CoV-2 RdRp transfected in HEK293T cells incubated for 24 hrs by […].
Assay [2] can be described thus: Inhibition of SARS-CoV-2 RdRp transfected in human A549 cells incubated for 24 hrs by […].

pEC50: −log10 of the molar value.

In the case of `CCOc1cccc(CNC(=O)CSc2cn(C(=O)OC(C)(C)C)c3ccccc23)c1`, the pEC50 was 5.85 in assay [1] and 5.93 in assay [2].

As to `O=C(CSc1c[nH]c2ccccc12)c1ccc(Cl)c(Cl)c1`, in assay [1], the pEC50 is 5.56.

In turn, `Cc1cccc(C(=O)CSc2c[nH]c3ccccc23)c1` showed a pEC50 in assay [1] of 5.60.
